For 17 compounds, EC50 results are on record in patent publication US8486946B2, “Pyrazolo [4,3-c] cinnolin-3-one M1 receptor positive allosteric modulators” (Merck Sharp & Dohme Corp., priority 2009, dated 2013).

This assay concerns the target T1, acetylcholine muscarinic M1 receptor (Homo sapiens, UniProt P11229).
T1 construct: expressed in transfected cells; host or cells: CHOnfat (CHO cells; also called CHOK1/hM1)
T1 sequence (P11229 1-460): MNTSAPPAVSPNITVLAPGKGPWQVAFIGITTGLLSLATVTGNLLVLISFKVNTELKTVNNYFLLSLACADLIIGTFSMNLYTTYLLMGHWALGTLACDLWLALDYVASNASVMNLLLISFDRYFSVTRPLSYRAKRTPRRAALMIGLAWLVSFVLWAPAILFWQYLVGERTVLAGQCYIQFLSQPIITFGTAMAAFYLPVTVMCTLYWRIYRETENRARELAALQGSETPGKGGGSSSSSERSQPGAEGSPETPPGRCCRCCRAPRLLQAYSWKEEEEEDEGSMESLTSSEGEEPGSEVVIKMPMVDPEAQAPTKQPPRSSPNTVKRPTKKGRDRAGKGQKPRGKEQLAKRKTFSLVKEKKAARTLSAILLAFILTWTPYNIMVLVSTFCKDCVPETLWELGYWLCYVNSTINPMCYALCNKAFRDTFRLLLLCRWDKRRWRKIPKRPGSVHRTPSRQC
In words: Muscarinic FLIPR intracellular calcium assay for M1 positive allosteric modulator activity in CHOnfat/hM1 cells. As to conditions: 4 min preincubation, then EC20 acetylcholine (3 nM final), calculated from FLIPR values, read-out: IP Value (inflection point). In kind it is cell-based. The procedure: The assay studies the effect of one or several concentrations of test compounds on basal or acetylcholine-stimulated Ca^2+ levels using FLIPR.
Compounds are prepared and subjected to a preincubation period of 4 min. Thereafter, a single EC20 concentration of acetylcholine is added to each well (3 nM final). The intracellular Ca^2+ level of each sample is measured and compared to an acetylcholine control to determine any modulatory activity.
Cells: CHOnfat/hM1, hM2, hM3 or hM4 cells are plated 24 hr before the assay at a density of 18,000 cells/well (100 μL) in a 384 well plate. CHOnfat/hM1 and CHOnfat/hM3 Growth Medium: 90% DMEM (Hi Glucose); 10% HI FBS; 2 mM L-glutamine; 0.1 mM NEAA; Pen-Strep; and 1 mg/ml Geneticin, are added. For M2Gqi5CHOnfat and M4Gqi5CHOnfat cells, an additional 600 ug/ml hygromycin is added.
Equipment: 384 well plate, 120 μL addition plate; 96-well Whatman 2 ml Uniplate Incubator, 37° C., 5% CO2; Skatron EMBLA-384 Plate Washer; Multimek Pipetting System; Genesis Freedom 200 System; Mosquito System; Temo Nanoliter Pipetting System; and FLIPR^384 Fluorometric Imaging Plate Reader System are used.
Buffers. Assay Buffer: Hanks Balanced Salt Solution, with 20 mM Hepes, 2.5 mM Probenecid (Sigma P-8761) first dissolved in 1 N NaOH, 1% Bovine Serum Albumin (Sigma A-9647). Dye Loading Buffer: Assay Buffer plus 1% Fetal Bovine Serum and Fluo-4AM/Pluronic Acid Mixture. 2 mM Fluo-4AM ester stock in DMSO (Molecular Probes F-14202) Concentration of 2 μM in buffer for a final concentration of 1 μM in Assay. 20% Pluronic Acid Solution stock, with concentration of 0.04% in Buffer, 0.02% in Assay.
65 μL of 2 mM Fluo-4AM are mixed with 130 μL of 20% Pluronic Acid. The resulting solution and 650 μL FBS is added to the assay buffer for a total volume of 65 mL. Positive Controls: 4-Br-A23187: 10 mM in DMSO; final concentration 10 μM. Acetylcholine: 10 mM in water, working stock at both 20 μM and 30 μM in assay buffer, final concentration of 10 μM. This is used to check the maximum stimulation of the CHOK1/hM1 cells. 20 μM (2×) acetylcholine is added in the preincubation part of the assay, and the 30 μM (3×) stock is added in the second part. (EC20)Acetylcholine: 10 mM in water, working stock of 9 nM (3×), and final concentration in assay is 3 nM. This is used after the preincubation with test compounds. Addition of the EC20 Acetylcholine to each well with a test compound will ascertain any modulator activity. 24 wells contain 3 nM Acetylcholine alone as a control.
Determining Activity of Putative Compounds:
Screening Plate Compounds are titrated in 96-well plates (columns 2-11), 100% DMSO, started at a concentration of 15 mM (150× stock concentration), and 3-fold serial dilutions using Genesis Freedom200 System. Four 96-well plates are combined into a 384-well plate using Mosquito Nanoliter Pipetting System by transferring 1 μl of serial diluted compounds to each well, and 1 mM acetylcholine (100× stock concentration) were added as a control. Using Temo, 49 μl assay buffer is added to each well of the 384-well plate right before assay.
In a 96-well Whatman 2 ml Uniplate, 9 nM Acetylcholine (3×) is pipetted into wells corresponding to the screening compounds, and into control wells. The 30 μM acetylcholine control (3×) is added into control wells, and the 3× agonist plate is transferred into a 384 well plate.
Cells are washed three times with 100 μL of buffer, leaving 30 μL of buffer in each well. Using Multimek, 30 μL of Dye Loading Buffer is added into each well and incubated at 37° C., 5% CO2 for up to one hr.
After 60 min, the cells are washed three times with 100 μL of buffer, leaving 30 μL of buffer in each well. The cell plate, screening plate, and agonist addition plates are placed on the platform in the FLIPR and the door closed. A signal test to check background fluorescence and basal fluorescence signal is performed. Laser intensity is adjusted if necessary. […]
Turning to `Cc1ccccc1-n1nc2c3ccccc3n(Cc3ccc(N4CCOCC4)nc3)nc-2c1=O` [Example 81, 2-(2-Methylphenyl)-5-{[6-(morpholin-4-yl)pyridine-3-yl]methyl}-2,5-dihydro-3H-pyrazolo[4,3-c]cinnolin-3-one], the EC50 is 1.37 µM.

Turning to `O=c1c2nn(Cc3ccc(-n4cccn4)cc3)c3ccccc3c-2nn1CC(O)CO` (centres unmarked) [Example 11, 2-(2,3-Dihydroxypropyl)-5-[4-(1H-pyrazol-1-yl)benzyl]-2,5-dihydro-3H-pyrazolo[4,3-c]cinnolin-3-one], the EC50 is 0.193 µM.

`O=c1c2nn(Cc3ccc(-n4cccn4)cc3)c3c(Cl)cccc3c-2nn1[C@H]1CCOC[C@@H]1O` (single isomer, unassigned) [Example 62, 6-Chloro-2-(trans-3-hydroxytetrahydro-2H-pyran-4-yl)-5-[4-(1H-pyrazol-1-yl)benzyl]-2,5-dihydro-3H-pyrazolo[4,3-c]cinnolin-3-one]: the EC50 was 0.021 µM.

Regarding `C[C@@H]1CCOC[C@@H]1n1nc2c3ccccc3n(Cc3ccc(-n4cccn4)cc3)nc-2c1=O` (single isomer, unassigned) [Example 73, cis-2-[4-Methyltetrahydro-2,1-pyran-3-yl]-5-[4-(1H-pyrazol-1-yl)benzyl]-2,5-dihydro-3H-pyrazolo[4,3-c]cinnoline-3-one], the EC50 was 0.771 µM.

Turning to `O=c1c2nn(Cc3ccc(-n4cccn4)cc3)c3c(Cl)cccc3c-2nn1[C@H]1CCOC[C@@H]1O` (single isomer, unassigned) [Example 63, 6-Chloro-2-(trans-3-hydroxytetrahydro-2H-pyran-4-yl)-5-[4-(1H-pyrazol-1-yl)benzyl]-2,5-dihydro-3H-pyrazolo[4,3-c]cinnolin-3-one], the EC50 was 0.593 µM.

In the case of `Cc1ccccc1-n1nc2c3ccccc3n(Cc3ccc(-n4ccnc4)nc3)nc-2c1=O` [Example 23, 5-{[6-(1H-Imidazol-1-yl)pyridine-3-yl]methyl}-2-(2-methylphenyl)-2,5-dihydro-3H-pyrazolo[4,3-c]cinnolin-3-one], the EC50 is 0.748 µM.

Turning to `O=c1c2nn(Cc3ccc(-n4cccn4)cc3)c3c(Cl)cccc3c-2nn1[C@@H]1CCCC[C@H]1O` [Example 61], the EC50 is 0.042 µM.

Take `O=c1c2nn(Cc3ccc(-n4cccn4)cc3)c3ccccc3c-2nn1-c1ccccc1F` [Example 1, 2-(2-Fluorophenyl)-5-{[4-(1H-pyrazol-1-yl)phenyl]methyl}-2,5-dihydro-3H-pyrazolo[4,3-c]cinnolin-3-one]: the EC50 was 0.028 µM.

`Cc1nc(F)ccc1-n1nc2c3ccccc3n(Cc3ccc(-c4cnn(C)c4)nc3)nc-2c1=O` [Example 86, 2-(6-Fluoro-2-methylpyridin-3-yl)-5-{[6-(1-methyl-1H-pyrazol-4-yl)pyridin-3-yl]methyl}-2,5-dihydro-3H-pyrazolo[4,3-c]cinnolin-3-one]: the EC50 is 0.225 µM.

Consider `CC1CCOCC1n1nc2c3ccccc3n(Cc3ccc(-n4cccn4)cc3)nc-2c1=O` (racemic) [Example 71, (±)-2-[cis,trans-4-methyltetrahydro-2H-pyran-3-yl]-5-[4-(1H-pyrazol-1-yl)benzyl]-2,5-dihydro-3H-pyrazolo[4,3-c]cinnolin-3-one], for which the EC50 was 0.089 µM.

In the case of `Cc1ccccc1-n1nc2c3ccccc3n(Cc3ccc(Br)cn3)nc-2c1=O` [Example 21, 5-[(5-Bromopyridin-2-yl)methyl]-2-(2-methylphenyl)-2,5-dihydro-3H-pyrazolo[4,3-c]cinnolin-3-one], the EC50 is 2.86 µM.

For the compound `C[C@H]1CCOC[C@@H]1n1nc2c3ccccc3n(Cc3ccc(-n4cccn4)cc3)nc-2c1=O` (single isomer, unassigned) [Example 72, trans-2-[4-Methyltetrahydro-2H-pyran-3-yl]-5-[4-(1H-pyrazol-1-yl)benzyl]-2,5-dihydro-3H-pyrazolo[4,3-c]cinnoline-3-one], the EC50 is 0.047 µM.

As for `C[C@@H]1CCOC[C@@H]1n1nc2c3ccccc3n(Cc3ccc(-n4cccn4)cc3)nc-2c1=O` (single isomer, unassigned) [Example 75, cis-2-[4-Methyltetrahydro-2H-pyran-3-yl]-5-[4-(1H-pyrazol-1-yl)benzyl]-2,5-dihydro-3H-pyrazolo[4,3-c]cinnoline-3-one], the EC50 is 0.158 µM.

Turning to `C[C@H]1CCOC[C@@H]1n1nc2c3ccccc3n(Cc3ccc(-n4cccn4)cc3)nc-2c1=O` (single isomer, unassigned) [Example 74], the EC50 is 0.636 µM.

As for `Cc1ccc(-c2ccc(Cn3nc4c(=O)n(-c5cccc(C)c5C)nc-4c4ccccc43)cn2)cn1` [Example 90, 2-(2,3-Dimethylphenyl)-5-[(6′-methyl-2,3′-bipyridin-5-yl)methyl]-2,5-dihydro-3H-pyrazolo[4,3-c]cinnolin-3-one], the EC50 is 0.029 µM.

Consider `Cc1ccccc1-n1nc2c3ccccc3n(Cc3ccc(-c4cnn(C)c4)nc3)nc-2c1=O` [Example 25, 2-(2-Methylphenyl)-5-{[6-(1-methyl-1H-pyrazol-4-yl)pyridine-3-yl]methyl}-2,5-dihydro-3H-pyrazolo[4,3-c]cinnolin-3-one], for which the EC50 is 0.144 µM.

On to `N#Cc1cccc(F)c1-n1nc2c3ccccc3n(Cc3ccc(-n4cccn4)cc3)nc-2c1=O` [Example 13, 3-Fluoro-2-(3-oxo-5-{[4-(1H-pyrazol-1-yl)phenyl]methyl}-3,5-dihydro-2H-pyrazolo[4,3-c]cinnolin-2-yl)benzonitrile], for which the EC50 was 0.014 µM.
